Patent publication US11993599B2, “Therapeutic compounds” (Genentech, Inc., priority 2021, dated 2024)

Key:
BRM = BRM (Homo sapiens, UniProt P51531); experiment: Immunofluorescence assay for BRM degradation in SW1573 cells; assay type: cell-based; set-up: treated overnight at 4° C. with either BRM primary antibody (Cell signaling Cat #11966) or BRG primary antibody; endogenous in cells; host or cells: SW1573; details: 20 hours incubation; for DC50: immunofluorescence mean nuclear signal, read-out: BRM IF Degradation IC50; for BRM IF Degradation Sinf (%): normalized to a known degrader control
Procedure, shortened: (§1)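 Cells seeded one day before dosing, exposed to compounds for 20 hours, then fixed, permeabilized, blocked and stained overnight at 4 °C with anti-BRM or anti-BRG1 antibody. Nuclear fluorescence intensity per cell, normalized to a degrader control, gave concentration-response curves fitted with a floating maximum.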

BRG1 = target: T1, BRG1 (Homo sapiens, UniProt P51532); experiment: Immunofluorescence assay for BRG1 degradation in SW1573 cells; assay type: cell-based; details: 20 hours incubation; for DC50: immunofluorescence mean nuclear signal, read-out: BRG1 IF Degradation IC50; for Dmax: SW1573, 20 h, read-out: BRG1 IF Degradation Sinf (%)
T1 construct: either BRM primary antibody (Cell signaling Cat #11966) or BRG primary antibody (Abcam, ab 110641); endogenous in cells; host or cells: SW1573
Procedure, shortened: as §1

[1] = normalized to a known degrader control

T1 sequence (P51532 whole entry): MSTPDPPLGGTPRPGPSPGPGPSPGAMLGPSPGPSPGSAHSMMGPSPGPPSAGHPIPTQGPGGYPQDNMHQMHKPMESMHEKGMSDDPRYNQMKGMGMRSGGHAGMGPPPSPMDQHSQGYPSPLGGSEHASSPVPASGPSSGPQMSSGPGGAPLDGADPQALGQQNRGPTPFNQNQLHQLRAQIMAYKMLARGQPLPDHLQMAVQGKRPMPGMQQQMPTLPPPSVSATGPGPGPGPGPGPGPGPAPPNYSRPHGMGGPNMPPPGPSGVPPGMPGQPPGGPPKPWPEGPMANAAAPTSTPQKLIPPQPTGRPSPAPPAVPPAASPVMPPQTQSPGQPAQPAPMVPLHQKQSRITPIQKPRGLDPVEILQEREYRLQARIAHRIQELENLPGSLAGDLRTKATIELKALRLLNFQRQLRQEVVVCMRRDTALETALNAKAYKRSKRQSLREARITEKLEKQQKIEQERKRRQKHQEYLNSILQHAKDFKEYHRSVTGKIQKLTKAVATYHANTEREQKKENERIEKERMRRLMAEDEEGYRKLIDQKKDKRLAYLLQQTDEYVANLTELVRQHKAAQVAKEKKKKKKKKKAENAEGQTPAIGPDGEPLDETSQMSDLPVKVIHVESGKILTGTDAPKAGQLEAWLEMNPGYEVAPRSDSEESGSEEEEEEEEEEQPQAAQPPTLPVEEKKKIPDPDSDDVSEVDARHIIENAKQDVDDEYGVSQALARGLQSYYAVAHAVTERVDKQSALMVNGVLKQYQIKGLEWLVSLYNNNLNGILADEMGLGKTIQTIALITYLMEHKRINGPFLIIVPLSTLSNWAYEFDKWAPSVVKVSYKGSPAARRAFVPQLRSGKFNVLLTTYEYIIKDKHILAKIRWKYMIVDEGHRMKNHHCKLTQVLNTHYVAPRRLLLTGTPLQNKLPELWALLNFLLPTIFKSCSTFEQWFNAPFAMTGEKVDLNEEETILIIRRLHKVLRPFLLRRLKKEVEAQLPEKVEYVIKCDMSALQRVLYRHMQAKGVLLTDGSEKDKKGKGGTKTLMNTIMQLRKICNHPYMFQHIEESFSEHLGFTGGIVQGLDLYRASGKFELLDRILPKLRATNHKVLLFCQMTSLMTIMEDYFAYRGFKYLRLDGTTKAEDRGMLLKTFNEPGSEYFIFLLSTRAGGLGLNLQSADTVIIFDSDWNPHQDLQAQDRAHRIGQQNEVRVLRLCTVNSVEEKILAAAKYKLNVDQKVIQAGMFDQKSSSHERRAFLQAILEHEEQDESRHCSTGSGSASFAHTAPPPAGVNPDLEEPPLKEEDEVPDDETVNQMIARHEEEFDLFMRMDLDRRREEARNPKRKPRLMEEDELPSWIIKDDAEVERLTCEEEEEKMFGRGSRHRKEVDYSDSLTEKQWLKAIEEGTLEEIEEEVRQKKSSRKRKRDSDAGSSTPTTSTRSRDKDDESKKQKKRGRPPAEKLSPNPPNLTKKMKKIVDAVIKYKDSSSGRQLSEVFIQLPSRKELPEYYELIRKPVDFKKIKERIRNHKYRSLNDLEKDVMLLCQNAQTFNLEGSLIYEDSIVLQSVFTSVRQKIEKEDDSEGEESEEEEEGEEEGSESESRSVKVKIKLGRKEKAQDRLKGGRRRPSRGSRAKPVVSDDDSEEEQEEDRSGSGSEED
Sequence of BRM (P51531 whole entry): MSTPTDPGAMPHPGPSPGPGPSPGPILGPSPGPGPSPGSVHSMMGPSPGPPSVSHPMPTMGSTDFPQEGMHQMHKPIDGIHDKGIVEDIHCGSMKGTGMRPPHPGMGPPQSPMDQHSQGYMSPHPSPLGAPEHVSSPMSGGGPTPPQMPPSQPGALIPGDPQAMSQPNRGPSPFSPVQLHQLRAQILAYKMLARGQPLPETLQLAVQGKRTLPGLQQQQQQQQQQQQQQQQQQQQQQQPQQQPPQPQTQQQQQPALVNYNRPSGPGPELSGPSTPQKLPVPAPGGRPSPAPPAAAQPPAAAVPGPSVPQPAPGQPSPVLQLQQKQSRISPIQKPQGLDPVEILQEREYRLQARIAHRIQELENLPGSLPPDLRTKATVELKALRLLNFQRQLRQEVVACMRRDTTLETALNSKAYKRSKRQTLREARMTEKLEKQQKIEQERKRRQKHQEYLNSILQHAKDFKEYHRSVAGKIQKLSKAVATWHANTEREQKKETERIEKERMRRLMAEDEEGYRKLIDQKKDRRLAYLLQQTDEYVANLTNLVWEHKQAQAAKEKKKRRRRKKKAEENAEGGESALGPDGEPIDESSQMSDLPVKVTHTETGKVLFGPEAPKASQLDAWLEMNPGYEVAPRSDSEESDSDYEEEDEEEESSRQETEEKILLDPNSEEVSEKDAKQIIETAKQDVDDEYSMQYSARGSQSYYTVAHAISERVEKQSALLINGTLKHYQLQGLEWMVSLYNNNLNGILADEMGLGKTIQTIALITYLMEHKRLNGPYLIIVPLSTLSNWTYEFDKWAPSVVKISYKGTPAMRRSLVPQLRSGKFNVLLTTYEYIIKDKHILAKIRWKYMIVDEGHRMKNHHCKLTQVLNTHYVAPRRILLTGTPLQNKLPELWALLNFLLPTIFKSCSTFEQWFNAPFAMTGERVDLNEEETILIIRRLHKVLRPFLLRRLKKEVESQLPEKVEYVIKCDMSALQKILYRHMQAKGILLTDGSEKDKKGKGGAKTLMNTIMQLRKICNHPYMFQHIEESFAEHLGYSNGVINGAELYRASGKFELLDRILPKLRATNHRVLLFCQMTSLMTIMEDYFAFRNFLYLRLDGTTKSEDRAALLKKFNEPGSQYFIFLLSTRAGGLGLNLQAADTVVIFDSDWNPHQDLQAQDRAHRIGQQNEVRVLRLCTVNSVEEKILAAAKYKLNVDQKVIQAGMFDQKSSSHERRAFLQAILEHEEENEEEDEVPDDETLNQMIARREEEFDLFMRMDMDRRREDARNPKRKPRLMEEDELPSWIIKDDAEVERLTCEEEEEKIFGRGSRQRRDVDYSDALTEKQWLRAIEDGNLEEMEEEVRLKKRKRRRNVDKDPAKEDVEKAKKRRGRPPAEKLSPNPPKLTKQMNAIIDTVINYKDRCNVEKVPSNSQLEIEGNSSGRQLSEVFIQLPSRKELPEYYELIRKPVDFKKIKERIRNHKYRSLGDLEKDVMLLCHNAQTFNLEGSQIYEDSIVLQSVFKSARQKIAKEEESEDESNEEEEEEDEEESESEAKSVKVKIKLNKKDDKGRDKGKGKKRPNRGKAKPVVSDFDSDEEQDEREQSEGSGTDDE

Row | SMILES | DC50 (BRM) [µM] | BRM IF Degradation Sinf (%) (BRM) | DC50 (BRG1) [µM] | Dmax (BRG1; [1]) [%] | BRG1 IF Degradation Sinf (%) (BRG1; [1])
1 | CC1CN(CC#Cc2cc(N3C4CCC3CN(c3cc(-c5ccccc5O)nnc3N)C4)ccn2)CCCO1 (stereo not shown) [Compound 42, 2-[6-amino-5-[8-[2-[3-(2-methyl-1,4-oxazepan-4-yl)prop-1-ynyl]-4-pyridyl]-3,8-diazabicyclo[3.2.1]octan-3-yl]pyridazin-3-yl]phenol] | 0.01 to 0.1 | E (E indicates −30%-−70%) | 0.01 to 0.1 | 30 to 70 | 
2 | Nc1nnc(-c2ccccc2O)cc1N1CC2CCC(C1)N2c1ccnc(C#CCN2CCC3(CCC3)C2)c1 [Compound 129, 2-[6-amino-5-[8-[2-[3-(6-azaspiro[3.4]octan-6-yl)prop-1-ynyl]-4-pyridyl]-3,8-diazabicyclo[3.2.1]octan-3-yl]pyridazin-3-yl]phenol] | < 0.01 | E (E indicates −30%-−70%) | < 0.01 | 30 to 70 | 
3 | CN1C[C@@H]2CN(CC#Cc3cc(N4C5CCC4CN(c4cc(-c6ccccc6O)nnc4N)C5)ccn3)C[C@@H]2C1 [Compound 108, 2-[5-[8-[2-[3-[(3aS,6aR)-2-methyl-1,3,3a,4,6,6a-hexahydropyrrolo[3,4-c]pyrrol-5-yl]prop-1-ynyl]-4-pyridyl]-3,8-diazabicyclo[3.2.1]octan-3-yl]-6-amino-pyridazin-3-yl]phenol] | > 0.1 | E (E indicates −30%-−70%) | > 0.1 |  | 
4 | CC1CN(CC#Cc2cc(N3C4CCC3CN(c3cc(-c5ccccc5O)nnc3N)C4)ccn2)C1C (stereo not shown) [Compound 180, 2-[6-amino-5-[8-[2-[3-(2,3-dimethylazetidin-1-yl)prop-1-ynyl]-4-pyridyl]-3,8-diazabicyclo[3.2.1]octan-3-yl]pyridazin-3-yl]phenol] | < 0.01 | E (E indicates −30%-−70%) | < 0.01 | 30 to 70 | 
5 | Nc1nnc(-c2ccccc2O)cc1N1CC2CCC(C1)N2c1ccnc(C#CCN2CCOC3CCNCC32)c1 (stereo not shown) [Compound 147, 2-[5-[8-[2-[3-(2,3,4a,5,6,7,8,8a-octahydropyrido[4,3-b][l,4]oxazin-4-yl)prop-1-ynyl]-4-pyridyl]-3,8-diazabicyclo[3.2.1]octan-3-yl]-6-amino-pyridazin-3-yl]phenol] | > 0.1 | E (E indicates −30%-−70%) | > 0.1 | 30 to 70 | 
6 | CC1CCN(CC#Cc2cc(N3C4CCC3CN(c3cc(-c5ccccc5O)nnc3N)C4)ccn2)CCC1O (stereo not shown) [Compound 190, 1-[3-[4-[3-[3-amino-6-(2-hydroxyphenyl)pyridazin-4-yl]-3,8-diazabicyclo[3.2.1]octan-8-yl]-2-pyridyl]prop-2-ynyl]-5-methyl-azepan-4-ol] | < 0.01 | F (F indicates −71%-−120%) | < 0.01 | 30 to 70 | 
7 | Nc1nnc(-c2ccccc2O)cc1N1CC2CCC(C1)N2c1ccnc(C#CCN2CCC3CC[C@@H](O)C32)c1 (stereo partly drawn) [Compound 78, (6R)-1-[3-[4-[3-[3-amino-6-(2-hydroxyphenyl)pyridazin-4-yl]-3,8-diazabicyclo[3.2.1]octan-8-yl]-2-pyridyl]prop-2-ynyl]-3,3a,4,5,6,6a-hexahydro-2H-cyclopenta[b]pyrrol-6-ol] | < 0.01 | E (E indicates −30%-−70%) | > 0.1 |  | 
8 | Nc1nnc(-c2ccccc2O)cc1N1CC2CCC(C1)N2c1ccnc(C#CCN2CCC(F)(F)C2)c1 [Compound 43, 2-[6-amino-5-[8-[2-[3-(3,3-difluoropyrrolidin-1-yl)prop-1-ynyl]-4-pyridyl]-3,8-diazabicyclo[3.2.1]octan-3-yl]pyridazin-3-yl]phenol] | 0.01 to 0.1 | E (E indicates −30%-−70%) | < 0.01 | 0 to 30 | 
9 | CN1CC2(CCN(CC#Cc3cc(N4C5CCC4CN(c4cc(-c6ccccc6O)nnc4N)C5)ccn3)C2)C1 [Compound 156, 2-[6-amino-5-[8-[2-[3-(2-methyl-2,6-diazaspiro[3.4]octan-6-yl)prop-1-ynyl]-4-pyridyl]-3,8-diazabicyclo[3.2.1]octan-3-yl]pyridazin-3-yl]phenol] | > 0.1 | E (E indicates −30%-−70%) | > 0.1 | 30 to 70 | 
10 | CN(CC#Cc1cc(N2C3CCC2CN(c2cc(-c4ccccc4O)nnc2N)C3)ccn1)C1CCS(=O)(=O)C1 (stereo not shown) [Compound 51, 2-[6-amino-5-[8-[2-[3-[(1,1-dioxothiolan-3-yl)-methyl-amino]prop-1-ynyl]-4-pyridyl]-3,8-diazabicyclo[3.2.1]octan-3-yl]pyridazin-3-yl]phenol] | > 0.1 | E (E indicates −30%-−70%) | > 0.1 | 30 to 70 | 
11 | Nc1nnc(-c2ccccc2O)cc1N1CC2CCC(C1)N2c1ccnc(C#CCN2CC3CCC(C3)C2)c1 [Compound 93, 2-[6-amino-5-[8-[2-[3-(3-azabicyclo[3.2.1]octan-3-yl)prop-1-ynyl]-4-pyridyl]-3,8-diazabicyclo[3.2.1]octan-3-yl]pyridazin-3-yl]phenol] | < 0.01 | E (E indicates −30%-−70%) | > 0.1 |  | 
12 | Nc1nnc(-c2ccccc2O)cc1N1CC2CCC(C1)N2c1ccnc(C#CCN2CC3CCOC3C2)c1 (stereo not shown) [Compound 81, 2-[5-[8-[2-[3-(2,3,3a,4,6,6a-hexahydrofuro[2,3-c]pyrrol-5-yl)prop-1-ynyl]-4-pyridyl]-3,8-diazabicyclo[3.2.1]octan-3-yl]-6-amino-pyridazin-3-yl]phenol] | < 0.01 | E (E indicates −30%-−70%) | < 0.01 | 30 to 70 | 
13 | Nc1nnc(-c2ccccc2O)cc1N1CC2CCC(C1)N2c1ccnc(C#CCN2CCCCCC2)n1 [Compound 245, 2-(6-amino-5-(8-(2-(3-(azepan-1-yl)prop-1-yn-1-yl)pyrimidin-4-yl)-3,8-diazabicyclo[3.2.1]octan-3-yl)pyridazin-3-yl)phenol] | < 0.01 | F (F indicates −71%-−120%) | < 0.01 | 30 to 70 | 
14 | Nc1nnc(-c2ccccc2O)cc1N1CC2CCC(C1)N2c1ccnc(C#CCN2CCC23CCOC3)c1 (stereo not shown) [Compound 69, 2-[6-amino-5-[8-[2-[3-(7-oxa-1-azaspiro[3.4]octan-1-yl)prop-1-ynyl]-4-pyridyl]-3,8-diazabicyclo[3.2.1]octan-3-yl]pyridazin-3-yl]phenol] | < 0.01 | F (F indicates −71%-−120%) | < 0.01 |  | E (E indicates −30%-−70%)
15 | Nc1nnc(-c2ccccc2O)cc1N1CC2CCC(C1)N2c1ccnc(C#CCN2CCC[C@H]2CO)c1 [Compound 46, 2-[6-amino-5-[8-[2-[3-[(2S)-2-(hydroxymethyl)pyrrolidin-1-yl]prop-1-ynyl]-4-pyridyl]-3,8-diazabicyclo[3.2.1]octan-3-yl]pyridazin-3-yl]phenol] | < 0.01 | E (E indicates −30%-−70%) | 0.01 to 0.1 | 30 to 70 | 
16 | Nc1nnc(-c2ccccc2O)cc1N1CC2CCC(C1)N2c1ccnc(C#CCN2C[C@@H]3[C@@H](CO)[C@@H]3C2)c1 [Compound 118, 2-[6-amino-5-[8-[2-[3-[(1S,5R)-6-(hydroxymethyl)-3-azabicyclo[3.1.0]hexan-3-yl]prop-1-ynyl]-4-pyridyl]-3,8-diazabicyclo[3.2.1]octan-3-yl]pyridazin-3-yl]phenol] | 0.01 to 0.1 | E (E indicates −30%-−70%) | < 0.01 | 30 to 70 | 
17 | Nc1nnc(-c2ccccc2O)cc1N1CC2CCC(C1)N2c1ccnc(C#CCN2Cc3cn[nH]c3C2)c1 [Compound 149, 2-[6-amino-5-[8-[2-[3-(4,6-dihydro-1H-pyrrolo[3,4-c]pyrazol-5-yl)prop-1-ynyl]-4-pyridyl]-3,8-diazabicyclo[3.2.1]octan-3-yl]pyridazin-3-yl]phenol] | 0.01 to 0.1 | E (E indicates −30%-−70%) | 0.01 to 0.1 | 0 to 30 | 
18 | Nc1nnc(-c2ccccc2O)cc1N1CC2CCC(C1)N2c1ccnc(C#CCN2CCCC3(CC2)CC3(F)F)c1 (stereo not shown) [Compound 208, 2-[6-amino-5-[8-[2-[3-(2,2-difluoro-7-azaspiro[2.6]nonan-7-yl)prop-1-ynyl]-4-pyridyl]-3,8-diazabicyclo[3.2.1]octan-3-yl]pyridazin-3-yl]phenol] | < 0.01 | E (E indicates −30%-−70%) | < 0.01 | 30 to 70 | 
19 | Nc1nnc(-c2ccccc2O)cc1N1CC2CCC(C1)N2c1ccnc(C#CCN2CCOCC23CC3)c1 [Compound 73, 2-[6-amino-5-[8-[2-[3-(7-oxa-4-azaspiro[2.5]octan-4-yl)prop-1-ynyl]-4-pyridyl]-3,8-diazabicyclo[3.2.1]octan-3-yl]pyridazin-3-yl]phenol] | > 0.1 | E (E indicates −30%-−70%) | > 0.1 |  | 
20 | CCOC1CN(CC#Cc2cc(N3C4CCC3CN(c3cc(-c5ccccc5O)nnc3N)C4)ccn2)C1 [Compound 224, 2-[6-amino-5-[8-[2-[3-(3-ethoxyazetidin-1-yl)prop-1-ynyl]-4-pyridyl]-3,8-diazabicyclo[3.2.1]octan-3-yl]pyridazin-3-yl]phenol] | < 0.01 | E (E indicates −30%-−70%) | < 0.01 | 30 to 70 | 
